Reference: PubChem BioAssay (NCI)
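Interpolation was linear, between the two tested concentrations surrounding the appropriate level; five concentrations were tested over 48 hours in 96-well plates. Here, GI50 denotes the concentration required for 50% inhibition of growth. TGI: total growth inhibition.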

Legend:
Experiment in all cases: growth of human tumour cells (NCI), 48 h
NCI-H226 lung = system: NCI-H226 lung
NCI-H23 lung = system: NCI-H23 lung
NCI-H460 lung = system: NCI-H460 lung
NCI-H522 lung = system: NCI-H522 lung
NCI/ADR-RES ovarian = system: NCI/ADR-RES ovarian
OVCAR-3 ovarian = system: OVCAR-3 ovarian
OVCAR-4 ovarian = system: OVCAR-4 ovarian
OVCAR-8 ovarian = system: OVCAR-8 ovarian
PC-3 prostate = system: PC-3 prostate
RPMI-8226 leukemia = system: RPMI-8226 leukemia
RXF 393 renal = system: RXF 393 renal
SF-268 CNS = system: SF-268 CNS
SF-295 CNS = system: SF-295 CNS
SF-539 CNS = system: SF-539 CNS
SK-MEL-2 melanoma = system: SK-MEL-2 melanoma
SK-MEL-28 melanoma = system: SK-MEL-28 melanoma
SK-MEL-5 melanoma = system: SK-MEL-5 melanoma
SK-OV-3 ovarian = system: SK-OV-3 ovarian
SN12C renal = system: SN12C renal
SNB-19 CNS = system: SNB-19 CNS
SNB-75 CNS = system: SNB-75 CNS
SR leukemia = system: SR leukemia
SW-620 colon = system: SW-620 colon
T-47D breast = system: T-47D breast
TK-10 renal = system: TK-10 renal
U251 CNS = system: U251 CNS
UACC-257 melanoma = system: UACC-257 melanoma
UACC-62 melanoma = system: UACC-62 melanoma
UO-31 renal = system: UO-31 renal

Work on `CC1(C)N=C(N)N=C(N)N1c1cccc(Br)c1` yielded a TGI (NCI-H226 lung) of over 100 µM, a GI50 (NCI-H23 lung) of 0.564 µM and a TGI (NCI-H23 lung) of over 100 µM. It also gave a GI50 (NCI-H460 lung) of 0.435 µM, a TGI (NCI-H460 lung) of over 100 µM and a GI50 (NCI-H522 lung) of 4.29 µM. For the same compound, the TGI (NCI-H522 lung) was over 100 µM, the GI50 (NCI/ADR-RES ovarian) was over 63.5 µM and the TGI (NCI/ADR-RES ovarian) was over 100 µM. The GI50 (OVCAR-3 ovarian) was 6.56 µM, the TGI (OVCAR-3 ovarian) was over 100 µM and the GI50 (OVCAR-4 ovarian) was 8.66 µM. For the same compound, the TGI (OVCAR-4 ovarian) was over 100 µM, the GI50 (OVCAR-8 ovarian) was 0.228 µM and the TGI (OVCAR-8 ovarian) was over 100 µM. For the same compound, the GI50 (PC-3 prostate) was 0.212 µM, the TGI (PC-3 prostate) was over 100 µM and the GI50 (RPMI-8226 leukemia) was 6.81 µM. The TGI (RPMI-8226 leukemia) was over 100 µM, the GI50 (RXF 393 renal) was over 23.1 µM and the TGI (RXF 393 renal) was over 100 µM. The GI50 (SF-268 CNS) was 0.0541 µM, the TGI (SF-268 CNS) was over 100 µM and the GI50 (SF-295 CNS) was 0.642 µM. The TGI (SF-295 CNS) was over 38 µM, the GI50 (SF-539 CNS) was 0.393 µM and the TGI (SF-539 CNS) was over 100 µM. The GI50 (SK-MEL-2 melanoma) was over 100 µM, the TGI (SK-MEL-2 melanoma) was over 100 µM and the GI50 (SK-MEL-28 melanoma) was 14 µM. It also gave a TGI (SK-MEL-28 melanoma) of over 100 µM, a GI50 (SK-MEL-5 melanoma) of 1.03 µM and a TGI (SK-MEL-5 melanoma) of over 100 µM. The GI50 (SK-OV-3 ovarian) was 1.69 µM, the TGI (SK-OV-3 ovarian) was over 100 µM and the GI50 (SN12C renal) was 4.09 µM. For the same compound, the TGI (SN12C renal) was over 100 µM, the GI50 (SNB-19 CNS) was 1.68 µM and the TGI (SNB-19 CNS) was over 100 µM. For the same compound, the GI50 (SNB-75 CNS) was over 59 µM, the TGI (SNB-75 CNS) was over 100 µM and the GI50 (SR leukemia) was 0.703 µM. The TGI (SR leukemia) was over 100 µM, the GI50 (SW-620 colon) was 0.216 µM and the TGI (SW-620 colon) was over 100 µM. The GI50 (T-47D breast) was over 82.7 µM, the TGI (T-47D breast) was over 100 µM and the TGI (TK-10 renal) was over 100 µM. For the same compound, the GI50 (U251 CNS) was 0.321 µM, the TGI (U251 CNS) was over 100 µM and the GI50 (UACC-257 melanoma) was over 92.4 µM. For the same compound, the TGI (UACC-257 melanoma) was over 100 µM, the GI50 (UACC-62 melanoma) was 1.93 µM and the TGI (UACC-62 melanoma) was over 100 µM. For the same compound, the GI50 (UO-31 renal) was 6.69 µM and the TGI (UO-31 renal) was over 100 µM.
